The target in series [1] is human μ-subtype opioid receptor (hMOR) (Homo sapiens (Human), UniProt P35372). Description: MOR β-arrestin-2 agonist activity test. Conditions: for Emax: maximum effect of enkephalin DAMGO was 100%, about 0% = no actual agonist activity. Format: cell-based. The method, then:
Test 2: β-Arrestin-2 Agonist Activity Test
2.1 Experimental Purpose: To test the β-arrestin-2 agonist activity of the compounds of the present disclosure on the human μ-subtype opioid receptor (hMOR).
a. All samples were dissolved in DMSO to a storage concentration of 10 mM.
b. A series of diluted samples were formulated on a 384-well LDV plate. A total of 11 concentration points were obtained by 3.162-fold gradient dilution.
c. The series of diluted samples were transferred to an experimental plate by using an Echo machine, wherein 60 nL of the compound was transferred corresponding to each well.
d. 60 nL of 3.33 mM DAMGO (as HPE) and 60 nL of DMSO (as ZPE) were transferred to the corresponding positions on the experimental plate by using the Echo machine.
The experiment was performed using PathHunter Detection Kit from DiscoveRX Cooperation (DiscoveRX #93-0213C3)
a. Assay buffer and PathHunter detection reagent required for the experiment were formulated.
Assay Buffer: 1×DPBS buffer
PathHunter Detection Reagent: The kit was provided therein with three constituents.
c. The experimental plate was centrifuged at 300 rpm for 30 s and incubated at room temperature for 2 hours.
d. 6 μL of the PathHunter detection reagent was added to each well of the experimental plate.
e. The experimental plate was centrifuged at 300 rpm for 30 seconds, then left at room temperature for 60 minutes, and then read on the Envision.

Series [2] in a line: Metabolic stability in liver microsomes. Format: in vitro ADME. The conditions noted are these: pH 7.4; human liver microsomes 0.5 mg protein/mL; 45 mg microsome protein/g liver, 20 g liver/kg; read-out: Intrinsic Clearance CLint(liver) in Human Liver. As for the experimental part:
Test 3: Metabolic Stability in Liver Microsomes
3.1 Experimental Purpose: To test the metabolic stability of the compounds of the present disclosure in human liver microsomes
a. All samples as well as testosterone, diclofenac and propafenone acting as reference substances were dissolved in DMSO to a storage concentration of 10 mM.
b. Intermediate Solution: 5 μL of the substance to be tested or the reference substance was diluted with 45 μL of DMSO (with 450 μL of 1:1 methanol/water).
c. Working Solution: the intermediate solution was diluted with 450 μL of 100 mM potassium phosphate buffer solution (pH 7.4).
Assay Buffer: 100 mM potassium phosphate buffer (pH 7.4) • 10 mM MgCl2
Liver Microsome Solution (final concentration: 0.5 mg protein/mL):
Human liver microsomes, obtained from BD, Cat No. 452117, Lot No. 38291
b. 10 μL of the working solution containing the substance to be tested or the reference substance was added to each of plates (T0, T5, T10, T20, T30, T60, NCF60).
c. The liver microsome solution was dispensed into a 96-well plate in an amount of 680 μL/well, then 80 was added, and then T was added to each of the plates. The above incubation plate was placed at 37° C. and pre-incubated for approximately 10 minutes.
d. 10 μL of 100 mM potassium phosphate buffer was added to each well in the NCF60 plate.
e. After the pre-incubation was finished, the NADPH regeneration system working solution was dispensed into the 96-well plate in an amount of 90 μL/well, and then added to each of the plates in an amount of 10 μL/well to start the reaction.
f. The plates were incubated for an appropriate time (e.g., 5, 10, 20, 30, or 60 minutes).
g. The stop solution (refrigerated at 4° C., containing 100 ng/mL Tolbutamide and 100 ng/mL Labetalol) was added to each sample well in an amount of 300 μL/well.
h. The sample plates were shaken well for about 10 minutes and centrifuged at 4,000 rpm for 20 minutes at 4° C. During the centrifugation, 300 μL of HPLC water was added to each well, and 100 μL of the supernatant was taken for LC-MS/MS analysis.
T1/2 and Clint(mic) were calculated by the following formula: […]
Each gram of liver contained 45 mg of microsome protein, and the liver weight was 20 g/kg in a human.
Ct was the concentration at time t, t was the incubation time, C0 was the concentration at time 0, Ke was an elimination rate constant, Clint(mic) was the intrinsic clearance in liver microsomes, and Clint(liver) was the intrinsic clearance in liver. CLint(mic)=0.693/half-life/mg of microsome protein per mL(concentration of microsomes during incubation) CLint(liver)=CLint(mic)×mg of microsome protein/g of liver weight×a ratio of liver weight to body weight 3.4 Test Results

Series [3] addresses CYP2C9 (Homo sapiens (Human), UniProt P11712). Kind of series: Inhibition of cytochrome P450 isoenzymes, CYP2C9. Format: in vitro ADME. The conditions noted are these: >50 μM: inhibitory effect less than 50% at 50 μM; read-out: CYP 2C9 IC50. The method, then:
(§1) 4.1 Experimental Purpose: To test the inhibitory effects of the compounds of the present disclosure on different isoforms of human cytochrome P450 isoenzymes
(§2) 1) The activities of CYP1A2, 2C9, 2C19, 2D6, and 3A4 were measured using a standard substrate method. In each reaction, the enzyme activities were measured in the presence and absence of the substance to be tested, wherein a single sample was measured at a total of eight test concentrations. A 5-in-1 mixed inhibitor was used.
(§3) 2) An incubation matrix comprising microsomes, a substrate, and an inhibitor or the compound to be tested was pre-incubated at 37° C. for 5 minutes, and then NADPH was added to start the reaction.
(§4) 3) After the incubation, acetonitrile with an internal standard was added to stop the reaction.
(§5) 4) Metabolites generated by the substrates were measured by using the LC-MS/MS method, and the peak area ratio of each metabolite to the internal standard was evaluated and the inhibition rate and IC50 were calculated.

The target of series [4] is CYP2D6 (Homo sapiens (Human), UniProt P10635). Description: Inhibition of cytochrome P450 isoenzymes, CYP2D6. Format: in vitro ADME. As for the experimental part: as §1, §2, §3, §4, §5
Series [5] has as its target CYP3A4 (Homo sapiens (Human), UniProt P08684). Description: Inhibition of cytochrome P450 isoenzymes, CYP3A4. It is filed as in vitro ADME. Conditions: >50 μM: inhibitory effect less than 50% at 50 μM; read-out: CYP 3A4 IC50. The method, then: as §1, §2, §3, §4, §5
Where [6] appears, read: >30000 nM = greater than the highest detection concentration, read-out: MOR β-arrestin-2 EC50.

Where a name gives a salt, the structure may show the parent alone. Read-outs that look alike come from different tables or passages of the source.

Experimental findings from US11124523B2, “2,6-dioxaspiro [4,5] decane derivatives and preparation method therefor and pharmaceutical applications thereof” (SHANDONG LUYE PHARMACEUTICAL CO., LTD., priority 2017, dated 2021) are described below.

Chain of CYP2C9 (P11712 whole entry, canonical isoform): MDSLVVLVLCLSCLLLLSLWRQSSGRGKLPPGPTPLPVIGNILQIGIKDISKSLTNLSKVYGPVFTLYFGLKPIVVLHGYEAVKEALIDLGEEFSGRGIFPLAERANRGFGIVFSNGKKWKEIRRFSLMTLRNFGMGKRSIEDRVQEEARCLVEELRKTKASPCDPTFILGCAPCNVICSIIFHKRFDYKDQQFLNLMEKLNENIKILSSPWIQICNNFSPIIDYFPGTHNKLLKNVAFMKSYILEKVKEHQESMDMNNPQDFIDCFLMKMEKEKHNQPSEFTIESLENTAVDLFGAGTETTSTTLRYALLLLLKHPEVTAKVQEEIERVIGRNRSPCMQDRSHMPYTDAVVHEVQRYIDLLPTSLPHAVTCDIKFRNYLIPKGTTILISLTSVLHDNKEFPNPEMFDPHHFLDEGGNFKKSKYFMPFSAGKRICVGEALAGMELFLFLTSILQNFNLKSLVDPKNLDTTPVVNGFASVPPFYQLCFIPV
Chain of CYP2D6 (P10635 whole entry): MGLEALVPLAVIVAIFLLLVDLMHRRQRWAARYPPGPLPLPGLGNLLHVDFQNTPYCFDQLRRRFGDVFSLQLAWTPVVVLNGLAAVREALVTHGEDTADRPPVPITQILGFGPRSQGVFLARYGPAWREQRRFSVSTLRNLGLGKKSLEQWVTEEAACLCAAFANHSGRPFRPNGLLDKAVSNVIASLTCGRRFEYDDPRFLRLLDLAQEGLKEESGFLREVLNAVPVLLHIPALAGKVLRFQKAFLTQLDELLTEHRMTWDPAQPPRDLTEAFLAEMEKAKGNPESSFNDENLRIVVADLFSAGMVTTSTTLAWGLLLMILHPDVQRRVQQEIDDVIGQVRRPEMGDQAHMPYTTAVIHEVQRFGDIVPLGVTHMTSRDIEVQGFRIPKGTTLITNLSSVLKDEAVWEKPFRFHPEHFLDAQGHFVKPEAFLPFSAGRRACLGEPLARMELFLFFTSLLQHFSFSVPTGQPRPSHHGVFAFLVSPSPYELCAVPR
Chain of CYP3A4 (P08684 whole entry): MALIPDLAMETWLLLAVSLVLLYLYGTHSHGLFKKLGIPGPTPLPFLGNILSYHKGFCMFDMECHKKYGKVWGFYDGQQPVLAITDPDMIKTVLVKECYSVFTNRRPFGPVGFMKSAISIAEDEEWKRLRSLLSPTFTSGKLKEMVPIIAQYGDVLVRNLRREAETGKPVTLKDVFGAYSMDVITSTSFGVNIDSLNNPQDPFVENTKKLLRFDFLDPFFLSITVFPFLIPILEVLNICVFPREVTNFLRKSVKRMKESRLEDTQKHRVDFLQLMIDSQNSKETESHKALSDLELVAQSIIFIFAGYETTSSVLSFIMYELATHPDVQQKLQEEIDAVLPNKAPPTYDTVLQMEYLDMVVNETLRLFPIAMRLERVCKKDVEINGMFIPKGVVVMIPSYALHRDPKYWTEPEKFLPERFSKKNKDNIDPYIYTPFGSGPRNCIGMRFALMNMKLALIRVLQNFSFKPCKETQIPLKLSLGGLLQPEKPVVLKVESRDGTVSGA

A word on the EC50: it is the concentration giving half of the maximal effect. The Emax is the maximal effect, on the per cent scale that the assay sets. Usually IC50 stands for the concentration that inhibits the measured activity by half. On to `Fc1ccc([C@]2(CCNCc3cccc(F)c3)CCO[C@]3(CCOC3)C2)nc1` [Hydrochloride Salt of (+)-23], for which, in series [1] (setting [6]), the concentration for a half-maximal effect (EC50) was > 30 µM. In addition, the Emax in series [1] was ~0%. The CLint scaled in series [2] was 15.6 mL/min/kg. The IC50 in series [3] is > 50 µM; in series [4] (read-out: CYP 2D6 IC50), 17.8 µM; in series [5] it was > 50 µM.

`COc1ccsc1CNCC[C@@]1(c2ccccn2)CCOC2(CCCC2)C1` [compound 1, Oliceridine, reference compound] returned an Emax in series [1] of 4.5%. Besides, in series [2], the CLint scaled was 314 mL/min/kg. Moreover, the IC50 was > 50 µM in series [3] and 4.6 µM in series [4].

`Fc1ccc([C@]2(CCNCc3cccc(Cl)c3)CCO[C@]3(CCOC3)C2)nc1` [(+)-16]: in series [1] (setting [6]), the EC50 was > 30 µM. For the same molecule, the Emax in series [1] is ~0%. The CLint scaled in series [2] came to 29.2 mL/min/kg. Also, the IC50 in series [3] is > 50 µM; in series [4] (read-out: CYP 2D6 IC50) it was 12.7 µM; in series [5] it was 40.6 µM.

Take `c1ccc([C@]2(CCNCc3scc4c3CCC4)CCO[C@]3(CCOC3)C2)nc1` [(+)-2]: the EC50 in series [1] (setting [6]) is > 30 µM. Further, the Emax in series [1] was ~0%. The CLint scaled in series [2] worked out at 49 mL/min/kg. The IC50 in series [3] was > 50 µM; in series [4] (read-out: CYP 2D6 IC50) it was 46.4 µM; in series [5], > 50 µM.

On to `Cc1cccc(CNCC[C@@]2(c3ccc(F)cn3)CCO[C@]3(CCOC3)C2)c1` [Hydrochloride Salt of (+)-22], for which the EC50 in series [1] is > 30 µM. Also, the Emax in series [1] is ~0%. The CLint scaled in series [2] stood at 13.5 mL/min/kg. Also, the IC50 in series [3] was > 50 µM; in series [4], 19.3 µM; in series [5], > 50 µM.
